According to US20220125051A1, “PRE-HARVEST DESICCATION METHOD” (SYNGENTA CROP PROTECTION AG, priority 2019, published 2022):
Like-named read-outs stand apart in the source and are kept apart here.

What was measured:
Assay in all cases: Post-emergence efficacy, Method A
Type in all cases: in vivo
[1] = tested on: Lolium perenne (LOLPE); conditions: evaluated after 13 days; for pest or weed control at 500 g/ha: Lolium perenne, post-emergence, 312 h
Summary of the method: (§1)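 Plants grown 14 days in glasshouse (24/16 °C, 14 h light, 65% humidity) were sprayed with compound formulated in IF50. The spray was diluted in 0.25% or 1% Empicol ESC70 plus 1% ammonium sulphate. Damage was scored 13 days later on a 0-100 scale, where 100 is total damage.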

[2] = tested on: Digitaria sanguinalis (DIGSA); conditions: evaluated after 13 days; for pest or weed control at 500 g/ha: Digitaria sanguinalis, post-emergence, 312 h
Summary of the method: as §1

[3] = tested on: Setaria faberi (SETFA); conditions: evaluated after 13 days; for pest or weed control at 500 g/ha: Setaria faberi, post-emergence, 312 h
Summary of the method: as §1

[4] = tested on: Eleusine indica (ELEIN); conditions: evaluated after 13 days; for pest or weed control at 500 g/ha: Eleusine indica, post-emergence, 312 h
Summary of the method: as §1

[5] = tested on: Chenopodium album (CHEAL); conditions: evaluated after 13 days; for pest or weed control at 500 g/ha: Chenopodium album, post-emergence, 312 h
Summary of the method: as §1

[6] = tested on: Echinochloa crus-galli (ECHCG); conditions: evaluated after 13 days; for pest or weed control at 500 g/ha: Echinochloa crus-galli, post-emergence, 312 h
Summary of the method: as §1

[7] = tested on: Euphorbia heterophylla (EPHHL); conditions: evaluated after 13 days; for pest or weed control at 500 g/ha: Euphorbia heterophylla, post-emergence, 312 h
Summary of the method: as §1

[8] = tested on: Ipomoea hederacea (IPOHE); conditions: evaluated after 13 days; for pest or weed control at 500 g/ha: Ipomoea hederacea, post-emergence, 312 h
Summary of the method: as §1

[9] = tested on: Amaranthus palmeri (AMAPA); conditions: evaluated after 13 days; for pest or weed control at 500 g/ha: Amaranthus palmeri, post-emergence, 312 h
Summary of the method: as §1

[10] = Application rate 500 g/Ha, 100=total damage to plant, 0=no damage to plant, read-out: Control of weed species after post-emergence application, LOLPE
[11] = Application rate 500 g/Ha, 100=total damage to plant, 0=no damage to plant, read-out: Control of weed species after post-emergence application, DIGSA
[12] = Application rate 500 g/Ha, 100=total damage to plant, 0=no damage to plant, read-out: Control of weed species after post-emergence application, SETFA
[13] = Application rate 500 g/Ha, 100=total damage to plant, 0=no damage to plant, read-out: Control of weed species after post-emergence application, ELEIN
[14] = Application rate 500 g/Ha, 100=total damage to plant, 0=no damage to plant, read-out: Control of weed species after post-emergence application, CHEAL
[15] = Application rate 500 g/Ha, 100=total damage to plant, 0=no damage to plant, read-out: Control of weed species after post-emergence application, ECHCG
[16] = Application rate 500 g/Ha, 100=total damage to plant, 0=no damage to plant, read-out: Control of weed species after post-emergence application, EPHHL
[17] = Application rate 500 g/Ha, 100=total damage to plant, 0=no damage to plant, read-out: Control of weed species after post-emergence application, IPOHE
[18] = Application rate 500 g/Ha, 100=total damage to plant, 0=no damage to plant, read-out: Control of weed species after post-emergence application, AMAPA
[19] = Application Rate 500 g/Ha, Method A, read-out: Control of weed species after post-emergence application, LOLPE (100=total damage to plant; 0=no damage to plant)
[20] = Application Rate 500 g/Ha, Method A, read-out: Control of weed species after post-emergence application, DIGSA (100=total damage to plant; 0=no damage to plant)
[21] = Application Rate 500 g/Ha, Method A, read-out: Control of weed species after post-emergence application, SETFA (100=total damage to plant; 0=no damage to plant)
[22] = Application Rate 500 g/Ha, Method A, read-out: Control of weed species after post-emergence application, ELEIN (100=total damage to plant; 0=no damage to plant)
[23] = Application Rate 500 g/Ha, Method A, read-out: Control of weed species after post-emergence application, CHEAL (100=total damage to plant; 0=no damage to plant)
[24] = Application Rate 500 g/Ha, Method A, read-out: Control of weed species after post-emergence application, ECHCG (100=total damage to plant; 0=no damage to plant)
[25] = Application Rate 500 g/Ha, Method A, read-out: Control of weed species after post-emergence application, EPHHL (100=total damage to plant; 0=no damage to plant)
[26] = Application Rate 500 g/Ha, Method A, read-out: Control of weed species after post-emergence application, IPOHE (100=total damage to plant; 0=no damage to plant)
[27] = Application Rate 500 g/Ha, Method A, read-out: Control of weed species after post-emergence application, AMAPA (100=total damage to plant; 0=no damage to plant)
[28] = Application Rate 500 g/Ha, Method A
[29] = Application rate 500 g/Ha, 100=total damage to plant, 0=no damage to plant

Compound	pest or weed control at 500 g/ha [1, 10] [%]	pest or weed control at 500 g/ha [2, 11] [%]	pest or weed control at 500 g/ha [3, 12] [%]	pest or weed control at 500 g/ha [4, 13] [%]	pest or weed control at 500 g/ha [5, 14] [%]	pest or weed control at 500 g/ha [6, 15] [%]	pest or weed control at 500 g/ha [7, 16] [%]	pest or weed control at 500 g/ha [8, 17] [%]	pest or weed control at 500 g/ha [9, 18] [%]	other results
Cc1cccc(-c2cc[n+](CCS(=O)(=O)[O-])nc2)n1 [Compound A75]	50	50	70	60	30	50	60	20	60	–
Cc1cccnc1-c1cc[n+](CCS(=O)(=O)[O-])nc1 [Compound A66]	50	30	60	40	20	50	50	40	40	–
Cc1cnc(-c2cc[n+](CCS(=O)(=O)[O-])nc2)nc1C [Compound A97]	70	90	90	90	20	90	70	30	90	–
O=C(O)CC[n+]1ccc(-c2nccc(=O)[nH]2)cn1 [Compound A127]	10	80	30	20	20	40	20	10	10	–
CS(=O)(=O)c1cnc(-c2cc[n+](CCC(=O)[O-])nc2)nc1 [Compound A46]	20	50	50	50	10	30	60	10	70	–
O=S(=O)([O-])CC[n+]1ccc(-c2cccc(C(F)(F)F)n2)cn1 [Compound A74]	60	50	80	80	30	60	60	50	60	–
Cc1cc(F)cnc1-c1cc[n+](CCCS(=O)(=O)[O-])nc1 [Compound A196]	–	–	–	–	–	–	–	–	–	pest or weed control at 500 g/ha [1, 19]: 0%; pest or weed control at 500 g/ha [2, 20]: 0%; pest or weed control at 500 g/ha [3, 21]: 0%; pest or weed control at 500 g/ha [4, 22]: 10%; pest or weed control at 500 g/ha [5, 23]: 40%; pest or weed control at 500 g/ha [6, 24]: 0%; pest or weed control at 500 g/ha [7, 25]: 30%; pest or weed control at 500 g/ha [8, 26]: 20%; pest or weed control at 500 g/ha [9, 27]: 30%
Nc1cc(-c2cc[n+](CCC(=O)O)nc2)ccn1 [Compound A210]	–	–	–	–	–	–	–	–	–	pest or weed control at 500 g/ha [1, 19]: 20%; pest or weed control at 500 g/ha [2, 20]: 60%; pest or weed control at 500 g/ha [3, 21]: 30%; pest or weed control at 500 g/ha [4, 22]: 20%; pest or weed control at 500 g/ha [5, 23]: 10%; pest or weed control at 500 g/ha [6, 24]: 10%; pest or weed control at 500 g/ha [7, 25]: 10%; pest or weed control at 500 g/ha [8, 26]: 10%; pest or weed control at 500 g/ha [9, 27]: 70%
Cc1nc(-c2cc[n+](CCS(=O)(=O)[O-])nc2)ncc1Cl [Compound A99]	20	40	50	80	30	50	90	30	80	–
COP(=O)(C[n+]1ccc(-c2ncccn2)cn1)OC.O=S(=O)([O-])C(F)(F)F [Compound A238, 1-(dimethoxyphosphorylmethyl)-4-pyrimidin-2-yl-pyridazin-1-ium trifluoromethanesulfonate]	–	–	–	–	–	–	–	–	–	Control of weed species after post-emergence application, LOLPE (100=total damage to plant; 0=no damage to plant) [1, 28]: 10; Control of weed species after post-emergence application, DIGSA (100=total damage to plant; 0=no damage to plant) [2, 28]: 50; Control of weed species after post-emergence application, SETFA (100=total damage to plant; 0=no damage to plant) [3, 28]: 50; Control of weed species after post-emergence application, ELEIN (100=total damage to plant; 0=no damage to plant) [4, 28]: 30; Control of weed species after post-emergence application, CHEAL (100=total damage to plant; 0=no damage to plant) [5, 28]: 20; Control of weed species after post-emergence application, ECHCG (100=total damage to plant; 0=no damage to plant) [6, 28]: 40; Control of weed species after post-emergence application, EPHHL (100=total damage to plant; 0=no damage to plant) [7, 28]: 50; Control of weed species after post-emergence application, IPOHE (100=total damage to plant; 0=no damage to plant) [8, 28]: 40; Control of weed species after post-emergence application, AMAPA (100=total damage to plant; 0=no damage to plant) [9, 28]: 50
Nc1nccc(-c2cc[n+](CCS(=O)(=O)[O-])nc2)n1 [Compound A158]	–	–	–	–	–	–	–	–	–	pest or weed control at 500 g/ha [1, 19]: 30%; pest or weed control at 500 g/ha [2, 20]: 30%; pest or weed control at 500 g/ha [3, 21]: 40%; pest or weed control at 500 g/ha [4, 22]: 50%; pest or weed control at 500 g/ha [5, 23]: 80%; pest or weed control at 500 g/ha [6, 24]: 20%; pest or weed control at 500 g/ha [7, 25]: 80%; pest or weed control at 500 g/ha [8, 26]: 30%; pest or weed control at 500 g/ha [9, 27]: 100%
COc1cncc(-c2cc[n+](CCCS(=O)(=O)[O-])nc2)n1 [Compound A90]	20	30	30	20	20	20	60	30	40	–
O=C([O-])CC[n+]1ccc(-c2cccc(C(F)(F)F)n2)cn1 [Compound A73]	40	30	60	60	30	60	60	30	40	–
Cc1n[n+](CCC(=O)O)ccc1-c1ncccn1.[Cl-] [Compound A133]	–	–	–	–	–	–	–	–	–	Control of weed species after post-emergence application, LOLPE [1, 29]: 40; Control of weed species after post-emergence application, DIGSA [2, 29]: 70; Control of weed species after post-emergence application, SETFA [3, 29]: 90; Control of weed species after post-emergence application, ELEIN [4, 29]: 90; Control of weed species after post-emergence application, CHEAL [5, 29]: 40; Control of weed species after post-emergence application, ECHCG [6, 29]: 70; Control of weed species after post-emergence application, EPHHL [7, 29]: 20; Control of weed species after post-emergence application, IPOHE [8, 29]: 20; Control of weed species after post-emergence application, AMAPA [9, 29]: 60
